Data published in US8884032B2, “Trioxane monomers and dimers” (The Johns Hopkins University, priority 2009, dated 2014).
Several values for one entry are separate records, joined by “and”; a condition that tells them apart may be missing. Equal entries are not always repeated. Marks after values point to notes of the source that are not given here.

Experiments:
[1] = system: Plasmodium berghei, ANKA strain; assay: Antimalarial efficacy of a single oral dose of trioxane (8 mg/kg) combined with mefloquine hydrochloride (24 mg/kg) in Plasmodium berghei-infected mice (Table 3); assay type: in vivo; settings: single oral dose 8 mg/kg trioxane + 24 mg/kg mefloquine hydrochloride; for Average Survival (days) After Infection: 3 mice, experiment stopped on day 57
Protocol: (§1) Each trioxane silylamide 14a, 14b, and 16 (0.90 mg) was dissolved in 0.11 mL of 7:3 Tween 80:ethanol and then diluted with 1.10 mL of water for oral administration to 5-week old C57BU6J male mice (from the Jackson Laboratory) weighing 18-19 grams that were infected intraperitoneally on day 0 with the Plasmodium berghei, ANKA strain (2×10^7 parasitized erythrocytes). Woodard et al., 2009. Each of 3 mice in a group was treated orally 24 hours post-infection with a single dose of 0.20 mL (0.20 mL/1.21 mL×0.9 mg=0.15 mg) of diluted compound solution, corresponding to a dose of 8 mg/kg, combined with 24 mg/kg of mefloquine hydrochloride. Determining blood parasitemia levels, as well as monitoring the duration of animal survival compared to survival time of animals receiving no drug, are both widely accepted as measures of a drug's efficacy in antimalarial drug development. […] Animals infected but receiving no drug died on an average of 15 days post-infection. A widely accepted yardstick of cure (i.e., 100% efficacy) is survival of animals to at least day 30 post-infection, with no detectable malaria parasites in the animal's blood at that time.

[2] = Overt toxicity, behavioral change and body weight in treated malaria-infected mice (silylamide study); assay type: in vivo; settings: malaria-infected animals cured by trioxane plus mefloquine hydrochloride
Protocol: as §1

[3] = system: Plasmodium berghei, ANKA strain; assay: Antimalarial efficacy of a single oral dose of trioxane combined with mefloquine hydrochloride in Plasmodium berghei-infected mice (Table 1); assay type: in vivo
Protocol: (§2) Each trioxane 2b, 3, 4a, and 4b (0.90 mg) was dissolved in 0.11 mL of 7:3 Tween 80:ethanol and then diluted with 1.10 mL of water for oral administration to 5-week old C57BL/6J male mice (from the Jackson Laboratory) weighing about 22 g that were infected intraperitoneally on day 0 with the Plasmodium berghei, ANKA strain (2×10^7 parasitized erythrocytes). Chen et al., 2006.
(§3) Each of five mice in a group was treated orally 24 h post-infection with a single dose of 0.20 mL (0.20 mL/1.21 mL×0.9 mg=0.15 mg) of diluted compound solution, corresponding to a dose of 6.8 mg/kg, combined with 20 mg/kg of mefloquine hydrochloride. Determining blood parasitemia levels, as well as monitoring the duration of animal survival compared to survival time of animals receiving no drug, are both widely accepted as measures of a drug's efficacy in antimalarial drug development. […] Animals receiving no drug died on days 6-7 post-infection. A widely accepted yardstick of cure (i.e., 100% efficacy) is survival of animals to day 30 post-infection, with no detectable malaria parasites in the animal's blood at that time.
Average survival results are summarized in Table 1, including single oral doses of 13 mg/kg of trioxane combined with 13 mg/kg of mefloquine hydrochloride. The clinically used monomeric water-soluble trioxane drug 2c and the synthetic trioxolane peroxide drug development candidate OZ277 (9) maleate are included as monotherapy reference compounds.

[4] = system: Plasmodium berghei, ANKA malaria strain; assay: Antimalarial efficacy of a single oral dose (7.1 mg/kg) of trioxane combined with mefloquine hydrochloride (21 mg/kg) in Plasmodium berghei-infected mice (Table 2); assay type: in vivo; settings: mefloquine hydrochloride alone, single oral dose 21 mg/kg; for % parasitemia on day 30%: average of 4 mice, hydrochloride, 21 mg/kg
Protocol: Each trioxane dimer 12a-12c (0.90 mg) was dissolved in 0.11 mL of 7:3 Tween 80:ethanol and then diluted with 1.10 mL of distilled water for oral administration to 5-week-old C57BL/6J male mice (Jackson Laboratory) weighing about 21 g that were infected ip on day 0 with the Plasmodium berghei, ANKA malaria strain (2×10^7 parasitized erythrocytes) [Chen et al., 2006]. Each of five mice in a group was treated orally 24 h post-infection with a single dose of 0.20 mL (0.20 mL/1.21 mL×0.9 mg=0.15 mg) of diluted compound solution, corresponding to a dose of 7.1 mg/kg, combined with 21 mg/kg of mefloquine hydrochloride. Both determining blood parasitemia levels, as well as monitoring the duration of animal survival compared with survival time of infected animals receiving no drug, are widely accepted measures of drug efficacy in antimalarial drug development. […] The average survival time of the animals receiving no drug was 15.8 days post-infection. […] Widely accepted indications of complete cure (i.e. 100% efficacy) are survival of animals to day 30 post-infection with no detectable malaria parasites in the animal's blood at that time.

[5] = system: Plasmodium berghei, ANKA strain; assay: Antimalarial efficacy of a single oral dose of trioxane (8 mg/kg) combined with mefloquine hydrochloride (24 mg/kg) in Plasmodium berghei-infected mice (Table 3); assay type: in vivo; settings: mefloquine hydrochloride alone, single oral dose 22 mg/kg
[6] = Thermal stability in the absence of solvent (1H NMR); assay type: physicochemical; settings: neat solid
Excerpt: Referring now to Scheme 3, C-10 acetate 2d was converted into C-10-allyl derivative 7 and then, via hydroboration followed by oxidation, into monomeric trioxane carboxylic acid 8. Jung et al, 2003. Monomeric trioxane carboxylic acid 8 can be transformed in one step directly into a diverse library of monomeric trioxane amides. Jung et al, 2003. For example, one-step amidation of carboxylic acid 8 produced trioxane fluoroaryl amide 4a, a monomeric version of dimer fluoroaryl amide 3 (Scheme 3). In the same way, monomer trioxane fluoroanilide 4b was prepared directly and in good yield from carboxylic acid 8 (Scheme 3). The overall yield of 4b is approximately 48% from natural trioxane 1, and scale up to multigram or even kilogram amounts is expected to be straightforward. […]
Referring once again to Scheme 4, dihydroartemisinin acetate 2d, prepared from natural trioxane 1 in near quantitative yield, Posner et al., 2003, underwent tin-promoted dimerization, Posner et al., 2003, with bis-allylic silane 10, Bigot and Breit, 2008, to form pure C-10b, C10b-trioxane dimer alcohol 11 in 59% yield. […] Each of benzoate esters 12a-12c in the absence of solvent is thermally stable at the elevated temperature of 60° C. for at least 1 week and at 70° C. for at least 24 h, with less than 5% decomposition detected by ^1H NMR spectroscopy. […]

[7] = Overt toxicity and behavioral change in treated malaria-infected mice (fluoroaryl amide study); assay type: in vivo; settings: malaria-infected animals cured by trioxane plus mefloquine hydrochloride
Protocol: as §2, §3

P388 leukemia = settings: NCI Report on NSC 369397, 25 Oct. 1983; cited from earlier work
[8] = system: 60 cancer cell lines (leukemia, non-small-cell lung, colon, CNS, melanoma, ovarian, renal, prostate, breast); settings: cited from earlier work
[9] = mefloquine hydrochloride alone, single oral dose 20 mg/kg
[10] = single oral dose 6.8 mg/kg trioxane + 20 mg/kg mefloquine hydrochloride
[11] = single oral dose 13 mg/kg trioxane + 13 mg/kg mefloquine hydrochloride

C[C@H]1[C@@H](CCC(=O)NC[Si](C)(C)C)O[C@@H]2O[C@]3(C)CC[C@H]4[C@H](C)CC[C@@H]1[C@@]24OO3 [14a]
% Suppression of Parasitemia (on day 3 post-infection) [1]: >99.5%
parasites in the blood of the surviving mice on day 57 [1]: no parasites were detected
Average Survival (days) After Infection [1]: >57 days
overt toxicity or behavioral change attributable to trioxane drug administration [2]: Neither overt toxicity nor behavioral change

Cl.OC(c1cc(C(F)(F)F)nc2c(C(F)(F)F)cccc12)C1CCCCN1 (stereo not shown) [Mefloquine, mefloquine hydrochloride, reference compound]
% Suppression of Parasitemia (on day 3 post-infection) [3, 9]: 99.6%
Average Survival (days) After Infection [3, 9]: 17.6 days
No. of mice parasite free (day 30) [4]: 1
suppression of parasitemia (day 3) [4]: 91.5%
% parasitemia on day 30% [4]: 25 (4 mice) %
% parasitemia on day 30% ([4]; listed as mefloquine hydrochloride): 25%
cure of malaria-infected mice [5]: not curative

C[C@H]1[C@@H](CCC(=O)Nc2ccc(F)cc2)O[C@@H]2O[C@]3(C)CC[C@H]4[C@H](C)CC[C@@H]1[C@@]24OO3 [4b, Trioxane Monomer Fluoroanilide]
blood parasitemia of the one mouse not cured, day 30 ([3]; 6.8 mg/kg trioxane + 20 mg/kg mefloquine hydrochloride): 4%
mice completely cured (no parasites in their blood) on day 30 post-infection ([3]; 6.8 mg/kg trioxane + 20 mg/kg mefloquine hydrochloride, five mice): 80%
blood parasitemia of the one mouse not cured, day 30 ([3]; 13 mg/kg trioxane + 13 mg/kg mefloquine hydrochloride): 2%
mice cured (day 30) ([3]; 13 mg/kg trioxane + 13 mg/kg mefloquine hydrochloride, five mice): four
% Suppression of Parasitemia (on day 3 post-infection) ([3]; monotherapy, single oral dose 72 mg/kg trioxane, no mefloquine): 99.0%
Average Survival (days) After Infection ([3]; monotherapy, single oral dose 72 mg/kg trioxane, no mefloquine, 72 mg/kg): 24.4 days and 24.4 (21, 23, days
extended survival time after reinfection, longer than average survival of a newly infected control group ([3]; reinfection of the four cured mice on day 32 after the original infection): approximately four
% Suppression of Parasitemia (on day 3 post-infection) [3, 10]: 99.0%
% Suppression of Parasitemia (on day 3 post-infection) [3, 11]: 99.6%
Average Survival (days) After Infection [3, 11]: 30 days
stable in the absence of solvent at 60° C. ([6]; 60° C.): at least 7 days
stable in the absence of solvent at 70° C. ([6]; 70° C.): at least 1 day
overt toxicity or behavioral change attributable to trioxane drug administration [7]: Neither overt toxicity nor behavioral change

C[C@@H]1CC[C@H]2[C@@H](C)C(=O)O[C@@H]3O[C@@]4(C)CC[C@@H]1[C@]32OO4 [artemisinin]
activity against P388 leukemia (P388 leukemia): inactive
anticancer activity in 60 cell line panel [8]: modest anticancer activity

C[C@H]1[C@@H](CCC(=O)NCCC[Si](C)(C)C)O[C@@H]2O[C@]3(C)CC[C@H]4[C@H](C)CC[C@@H]1[C@@]24OO3 [14b]
% Suppression of Parasitemia (on day 3 post-infection) [1]: >99.5%
parasites in the blood of the surviving mice on day 57 [1]: ^aOne mouse died on day 17; the other two mice in this group showed no parasitemia on day 57.
Average Survival (days) After Infection [1]: 44^a days

C[C@H]1[C@@H](CC(C[C@H]2O[C@@H]3O[C@]4(C)CC[C@H]5[C@H](C)CC[C@@H]([C@H]2C)[C@@]35OO4)C(=O)NC[Si](C)(C)C)O[C@@H]2O[C@]3(C)CC[C@H]4[C@H](C)CC[C@@H]1[C@@]24OO3 (stereo partly shown) [compound 16]
% Suppression of Parasitemia (on day 3 post-infection) [1]: >99.5%
parasites in the blood of the surviving mice on day 57 [1]: no parasites were detected
Average Survival (days) After Infection [1]: >57 days
overt toxicity or behavioral change attributable to trioxane drug administration [2]: Neither overt toxicity nor behavioral change

C[C@H]1[C@@H](CC(C[C@H]2O[C@@H]3O[C@]4(C)CC[C@H]5[C@H](C)CC[C@@H]([C@H]2C)[C@@]35OO4)C(=O)NCc2ccc(F)cc2)O[C@@H]2O[C@]3(C)CC[C@H]4[C@H](C)CC[C@@H]1[C@@]24OO3 (stereo partly shown) [compound 3, Trioxane Dimer Fluoroaryl Amide]
% Suppression of Parasitemia (on day 3 post-infection) [3, 10]: 99.5%
Average Survival (days) After Infection ([3]; single oral dose 6.8 mg/kg trioxane + 20 mg/kg mefloquine hydrochloride, 24 h post-infection, C57BL/6J mice): 27.4 (22, 25, days
% Suppression of Parasitemia (on day 3 post-infection) [3, 11]: 99.9%
Average Survival (days) After Infection [3, 11]: 24.6 (17, 21, days
